Data reported in US8859496B2, “Pharmaceutical composition using connective-tissue growth factor” (Postech Academy-Industry Foundation, priority 2010, dated 2014).

Experiments:
HUVECs [1] = experiment: HUVEC wound migration assay; type: cell-based, human; settings: compared to Luciferase siRNA control
Method: Specifically, HUVECs inoculated on a 60-mm culture dish to confluence were wounded with the end of a pipette, and treated with linker polypeptide (10^−1˜10^2 nM) or recombinant CTGF (recombinant human CTGF, rhCTGF; BioVendor R&D, NC, USA) (10^1 or 10^2 nM) in Medium 199 to which 1% serum and 1 mM thymidine were added. After culturing 16 hours, the number of cells that migrated over a reference line was counted to quantify the degree of migration, and the cells were photographed with 50× magnification.
(§1) First, 20 ng/ml of VEGF-A was administered to HUVECs, the degree of cell proliferation, cell migration, or tube formation was confirmed by the <Experiment method 9>, and the results are shown in FIGS. 22 to 24. At this time, FPRL1 antagonist WRW4 was additionally added.

HUVECs [2] = experiment: HUVEC tube formation on Matrigel; type: cell-based, human; settings: compared to Luciferase siRNA control
Method: Meanwhile, to analyze tube formation, HUVECs were inoculated on the previously polymerized Matrigel (BD Biosciences) layer together with a certain amount of linker polypeptide, rhCTGF or VEGF-A165. After culturing for 18 hours, the shape of the cells was observed by phase-contrast microscopy, and photographed with 40× magnification. By measuring the length of tubes 5 times in LPF (low-power fields) randomly selected from each well using image-Pro Plus v4.5 (Media Cybernetics, Silver Spring, Md.), the degree of tube formation was quantified.
as §1

human FPRL1 = experiment: siRNA inhibition of FPRL1 expression in HUVECs (RT-PCR); type: cell-based; settings: siRNA 20 nM
Method: To inhibit transcription of human FPRL1 using siRNA, siRA to FPRL1 (sense: UUCACAUCGUGGUGGACAUdTdT (SEQ ID NO. 3), anti-sense: AUGUCCACCACGAUGUGAAdTdT (SEQ ID NO. 4)) was used. As result of BLAST search of the siRNA sequence, it was confirmed that there is no significant similarity to other sequences in the database. […] HUVECs were used for siRNA transfection. The cells were transfected to the final concentration of 20 nM with FPRL1 siRNA (SEQ ID NO. 3 and SEQ ID NO. 4) or transfected with luciferase siRNA (SEQ ID NO. 11 and SEQ ID NO. 12) as control. At this time, a lipofectamine reagent (Invitrogen Life Technologies) was used according to the manufacturer's instruction. The cells were washed with serum-free medium, and cultured with the transfection mixture to which medium containing 20% (v/v) FBS was added for 4.5 hours. 24 hours and 48 hours after culturing, the cells were collected, and the degree of FPRL1 expression was confirmed by RT-PCR analysis.
All RNAs were separated from the transfected HUVECs according to the manufacturer's instruction using commercially available TRI reagent (Molecular Research Center). First-strand cDNA was synthesized according to the manufacturer's instruction using 3 ug of each DNA-free total RNA sample and oligo(dT)15 and Moloney murine leukemia virus reverse transcriptase (Promega, Wis., USA). […]

FPRL1 = target: T1, FPRL1 (Homo sapiens, UniProt P25090); experiment: ERK phosphorylation in FPRL1/RBL cells (immunoblot); type: cell-based; settings: vector/RBL, FPR/RBL or FPRL1/RBL cells; conditioned medium or VEGF-A 10 ng/ml 8 hours; WKYMVm 10 nM
T1 construct: expressed in transfected cells; host or cells: rat basophil leukemia RBL-2H3 cells, kept under G418
T1 sequence (P25090 1-351): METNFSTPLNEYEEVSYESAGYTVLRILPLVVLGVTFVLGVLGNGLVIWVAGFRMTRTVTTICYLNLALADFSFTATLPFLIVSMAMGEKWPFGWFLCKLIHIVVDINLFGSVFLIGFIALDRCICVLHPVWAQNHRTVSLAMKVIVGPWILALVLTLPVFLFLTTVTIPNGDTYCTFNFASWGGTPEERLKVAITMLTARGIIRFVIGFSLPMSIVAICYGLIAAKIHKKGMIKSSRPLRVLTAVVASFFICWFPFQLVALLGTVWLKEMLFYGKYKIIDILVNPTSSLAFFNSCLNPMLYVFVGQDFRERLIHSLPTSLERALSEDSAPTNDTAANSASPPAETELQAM
Method: Vector/RBL cells, FPR/RBL cells, FPRL1/RBL cells, and HUVECs were cultured to confluence, and serum-starved. The stimulated cells (1×10^5 cells) were washed with PBS twice, dissolved in 1 ml of sample buffer (50 mM Tris-HCl, 100 mM NaCl, 0.1% SDS, 1% Nonidet P-40, 50 mM NaF, 1 mM Na3VO4, 1 μg/ml aprotinin, 1 μg/ml pepstatin, and 1 μg/ml leupeptin), heated at 95° C. for 30 seconds, separated with SDS-PAGE, and then, transferred to a nitrocellulose film. Immunoblot was conducted using anti-phospho-ERK (extracellular signal regulated kinase)1/2 (Thr^202/Tyr^204)(Cell Signaling Technology, Beverly, Mass., USA), anti-ERK1/2 (Cell Signaling Technology, Beverly, Mass., USA), anti-CTGF (Abcam, Cambridge, Mass., USA), anti-Actin (Sigma, St. Louis, Mo., USA), or anti-Flag (Sigma, St. Louis, Mo., USA) antibody, and then, the film was visualized with a chemiluminescence substrate (Amersham Pharmacia).
To confirm this, the inventors obtained conditioned medium (CM) in HUVEC treated with VEGF-A, and FPRL1-overexpressing cells FPRL1/RBL were treated therewith in the concentration of 10 ng/ml or 50 ng/ml for 8 hours. At this time, as positive control, FPRL1 agonistic peptide WKYMVm (Trp-Lys-Tyr-Met-Val-D-Met, SEQ ID NO. 1) was treated with 10 nM.
After the treatment, immunoblot was conducted on cell lysate that was transferred to a nitrocellulose film with anti-phospho ERK (extracellular signal regulated kinase)1/2 and anti-ERK1/2 antibody (Cell Signaling Technology, Beverly, Mass., USA), and then, the film was visualized with a chemiluminescence substrate (Amersham Pharmacia), and the results are shown in FIG. 1.
Meanwhile, the above described vector/RBL, FPR/RBL, or FPRL1/RBL cells were respectively treated with the above conditioned medium or VEGF-A at the concentration of 10 ng/ml for 8 hours, and positive control was treated with 10 nM of agonistic peptide WKYMVm (SEQ ID NO. 1).
As described in the <Experiment method 5>, FPRL1/RBL cells were treated with 40 ug of the HPLC fraction of the conditioned medium for 5 minutes, and the result confirming whether ERK phosphorylation occurred as described in the <Experiment result 1> was shown in FIG. 3.
To confirm whether the purified proteins induce ERK phosphorylation in FPRL1/RBL cells, immunoblot was conducted as described in the <Experiment result 1>, and the results are shown in FIG. 9.
ERK phosphorylation induction of CTGF linker polypeptide was compared to recombinant human CTGF (rhCTGF). Specifically, FPRL1/RBL cells were treated with CTGF linker polypeptide and rhCTGF for 5 minutes at various concentrations, ERK phosphorylation was measured, and the results are shown in FIG. 11. […]

Substance | effect of siRNA on HUVEC cell migration induced by VEGF-A (HUVECs [1]) | effect of siRNA on HUVEC tube formation induced by VEGF-A (HUVECs [2]) | FPRL1 expression after siRNA (human FPRL1) | ERK phosphorylation, specificity for FPRL1 (FPRL1)
FPRL1 siRNA: sense: UUCACAUCGUGGUGGACAUdTdT (SEQ ID NO. 3), anti-sense: AUGUCCACCACGAUGUGAAdTdT (SEQ ID NO. 4) (dTdT overhangs, chemistry not fully specified) | cell migration or tube formation induced by VEGF-A is inhibited | cell migration or tube formation induced by VEGF-A is inhibited | FPRL1 expression is inhibited | 
Luciferase siRNA: control siRNA, sense: CGUACGCGGAAUACUUCGAdTdT (SEQ ID NO. 11), anti-sense: UCGAAGUAUUCCGCGUACGdTdT (SEQ ID NO. 12) (dTdT overhangs, chemistry not fully specified) |  |  | FPRL1 expression is not inhibited | 
Trp-Lys-Tyr-Met-Val-D-Met [WKYMVm] |  |  |  | induce ERK phosphorylation only in FPRL1-overexpressing FPRL1/RBL cells
